Measured values: ChEMBL document CHEMBL5126640, “Sanggenon C Suppresses Tumorigenesis of Gastric Cancer by Blocking ERK-Drp1-Mediated Mitochondrial Fission” (J Nat Prod, 2022)
Activity calls are given as the source filed them. No cut-off for these calls is given here.

Legend:
[1] = Toxicity in nude mouse xenografted with human AGS cells assessed as effect on aspartate aminotransferase level at 10 to 20 mg/kg, ip administered every other day and monitored every 3 days; type: organism-based; settings: in vivo, 72 h, dose 10-20 mg/kg, time 3 day
AGS [2] = assay: Inhibition of mitochondrial fission in human AGS cells assessed as reduction in mitochondrial elongated fragments at 0 to 6 uM measured after 24 hrs by mitotracker based confocal microscopy; type: functional, cell-based; settings: dose 0-6 µM
HGC-27 [3] = assay: Induction of apoptosis in human HGC-27 cells assessed as early apoptotic cells measured after 24 hrs by AnnexinV-FITC/PI staining based flow cytometry method (reference value: 1.6%); type: functional
AGS [4] = assay: Induction of apoptosis in human AGS cells assessed as increase in cleaved caspase-9 level at 0 to 10 uM by Western blot analysis; type: functional, cell-based; settings: dose 0-10 µM
HGC-27 [5] = assay: Induction of apoptosis in human HGC-27 cells assessed as late apoptotic cells measured after 24 hrs by AnnexinV-FITC/PI staining based flow cytometry method (reference value: 1.6%); type: functional
AGS [6] = assay: Induction of cell cycle arrest in human AGS cells assessed as accumulation of cells at G0/G1 phase at 10 uM incubated for 24 hrs propidium iodide staining-based flow cytometric analysis (reference value: 46.51%); type: functional
HGC-27 [7] = assay: Induction of cell cycle arrest in human HGC-27 cells assessed as accumulation of cells at G0/G1 phase at 10 uM incubated for 24 hrs propidium iodide staining-based flow cytometric analysis (reference value: 45.21%); type: functional
AGS [8] = assay: Induction of apoptosis in human AGS cells assessed as late apoptotic cells at 8 uM measured after 24 hrs by AnnexinV-FITC/PI staining based flowcytometry method (reference value: 3.4%); type: functional
AGS [9] = assay: Induction of apoptosis in human AGS cells assessed as necrotic cells at 6 uM measured after 24 hrs by AnnexinV-FITC/PI staining based flowcytometry method (reference value: 0.2%); type: functional
AGS [10] = assay: Inhibition of mitochondrial fission in human AGS cells assessed as reduction in punctiform mitochondria at 0 to 6 uM measured after 24 hrs by mitotracker based confocal microscopy; type: functional; settings: dose 0-6 µM
HGC-27 [11] = assay: Induction of apoptosis in human HGC-27 cells assessed as late apoptotic cells at 8 uM measured after 24 hrs by AnnexinV-FITC/PI staining based flowcytometry method (reference value: 5.4%); type: functional
HGC-27 [12] = assay: Inhibition of mitochondrial fission in human HGC-27 cells assessed as downregulation of p-DRP1 at 0 to 10 uM measured after 24 hrs by Western blot analysis; type: functional, cell-based; settings: dose 0-10 µM
AGS [13] = assay: Induction of apoptosis in human AGS cells assessed as late apoptotic cells at 10 uM measured after 24 hrs by AnnexinV-FITC/PI staining based flowcytometry method (reference value: 3.4%); type: functional
HGC-27 [14] = assay: Inhibition of ERK signalling pathway in human […] cells assessed as downregulation of p-ERK levels at 0 to 10 uM and measured after 24 hrs by western blot analysis; type: cell-based; settings: dose 0-10 µM
AGS [15] = assay: Induction of apoptosis in human AGS cells transfected with pcDNA3.1-Drp1 plasmid to overexpress DRP1 assessed as viable cells and measured after 24 hrs by AnnexinV-FITC/PI staining based flow cytometry method (reference value: 95.6 %); type: functional
AGS [16] = assay: Antitumor activity against human AGS cells xenografted in nude mouse assessed as downregulation of p-DRP1 levels at 10 to 20 mg/kg, ip administered every other day and monitored every 3 days; type: functional, organism-based; settings: dose 10-20 mg/kg, time 3.0 day
AGS [17] = assay: Induction of apoptosis in human AGS cells transfected with pcDNA3.1-Drp1 plasmid to overexpress DRP1 assessed as late apoptotic cells and measured after 24 hrs by AnnexinV-FITC/PI staining based flow cytometry method (reference value: 2.1 %); type: functional
HGC-27 [18] = assay: Induction of apoptosis in human HGC-27 cells assessed as upregulation of Bax level at 0 to 10 uM by Western blot analysis; type: functional, cell-based; settings: dose 0-10 µM
HGC-27 [19] = assay: Induction of apoptosis in human HGC-27 cells transfected with pcDNA3.1-Drp1 plasmid to overexpress DRP1 assessed as necrotic cells measured after 24 hrs by AnnexinV-FITC/PI staining based flow cytometry method (reference value: 0%); type: functional
AGS [20] = assay: Induction of apoptosis in human AGS cells assessed as late apoptotic cells measured after 24 hrs by AnnexinV-FITC/PI staining based flow cytometry method (reference value: 2.4%); type: functional
HGC-27 [21] = assay: Inhibition of mitochondrial fission in human HGC-27 cells assessed as reduction in mitochondrial elongated fragments at 0 to 6 uM measured after 24 hrs by mitotracker based confocal microscopy; type: functional, cell-based; settings: dose 0-6 µM
AGS [22] = assay: Induction of apoptosis in human AGS cells assessed as viable cells measured after 24 hrs by AnnexinV-FITC/PI staining based flow cytometry method (reference value: 95.4 %); type: functional
AGS [23] = assay: Induction of apoptosis in human AGS cells assessed as late apoptotic cells at 6 uM measured after 24 hrs by AnnexinV-FITC/PI staining based flowcytometry method (reference value: 3.4%); type: functional
HGC-27 [24] = assay: Induction of apoptosis in human HGC-27 cells assessed as early apoptotic cells at 6 uM measured after 24 hrs by AnnexinV-FITC/PI staining based flowcytometry method (reference value: 3.3%); type: functional
HGC-27 [25] = assay: Induction of apoptosis in human HGC-27 cells assessed as viable cells at 6 uM measured after 24 hrs by AnnexinV-FITC/PI staining based flowcytometry method (reference value: 91.1%); type: functional; settings: read-out: Activity
[26] = Toxicity in nude mouse xenografted with human AGS cells assessed as effect on kidney morphology at 10 to 20 mg/kg, ip administered every other day and monitored every 3 days by Hematoxyin-eosin staining based analysis; type: organism-based; settings: in vivo, 72 h, dose 10-20 mg/kg, time 3 day
HGC-27 [27] = assay: Induction of apoptosis in human HGC-27 cells assessed as early apoptotic cells at 8 uM measured after 24 hrs by AnnexinV-FITC/PI staining based flowcytometry method (reference value: 3.3%); type: functional
HGC-27 [28] = assay: Induction of apoptosis in human HGC-27 cells assessed as viable cells measured after 24 hrs by AnnexinV-FITC/PI staining based flow cytometry method (reference value: 96.6%); type: functional
HGC-27 [29] = assay: Induction of apoptosis in human HGC-27 cells assessed as viable cells at 8 uM measured after 24 hrs by AnnexinV-FITC/PI staining based flowcytometry method (reference value: 91.1%); type: functional; settings: read-out: Activity
AGS [30] = assay: Induction of apoptosis in human AGS cells assessed as early apoptotic cells at 6 uM measured after 24 hrs by AnnexinV-FITC/PI staining based flowcytometry method (reference value: 1.2%); type: functional
HGC-27 [31] = assay: Induction of apoptosis in human HGC-27 cells assessed as increase in cleaved caspase-3 level at 0 to 10 uM by Western blot analysis; type: functional, cell-based; settings: dose 0-10 µM
HGC-27 [32] = assay: Induction of apoptosis in human HGC-27 cells assessed as necrotic cells at 6 uM measured after 24 hrs by AnnexinV-FITC/PI staining based flowcytometry method (reference value: 0.2%); type: functional
AGS [33] = assay: Inhibition of mitochondrial fission in human AGS cells assessed as downregulation of p-DRP1 at 0 to 10 uM measured after 24 hrs by Western blot analysis; type: functional, cell-based; settings: dose 0-10 µM
AGS [34] = assay: Induction of apoptosis in human AGS cells assessed as viable cells at 10 uM measured after 24 hrs by AnnexinV-FITC/PI staining based flowcytometry method (reference value: 95.2%); type: functional; settings: read-out: Activity

## CC(C)=CCC12Oc3cc(O)ccc3C1(O)Oc1cc(O)c([C@H]3C=C(C)C[C@H](c4ccc(O)cc4O)[C@H]3C(=O)c3ccc(O)cc3O)c(O)c1C2=O (some centres undefined)
[1]
  Activity: Non-Toxic
AGS [2]
  inhibition: Active
HGC-27 [3]
  Activity: 4.3%
AGS [4]
  Activity: Active
HGC-27 [5]
  Activity: 3.9%
AGS [6]
  Activity: 55.9%
HGC-27 [7]
  Activity: 64.2%
AGS [8]
  Activity: 7.9%
AGS [9]
  Activity: 0.2%
AGS [10]
  inhibition: Active
HGC-27 [11]
  Activity: 11.1%
HGC-27 [12]
  inhibition: Active
AGS [13]
  Activity: 15.3%
HGC-27 [14]
  inhibition: Active
AGS [15]
  Activity: 90.3%
AGS [16]
  Activity: Active
AGS [17]
  Activity: 6.8%
HGC-27 [18]
  Activity: Active
HGC-27 [19]
  Activity: 0.4%
AGS [20]
  Activity: 7.6%
HGC-27 [21]
  inhibition: Active
AGS [22]
  Activity: 88.8%
AGS [23]
  Activity: 7.9%
HGC-27 [24]
  Activity: 4.2%
HGC-27 [25]
  viability at 6 µM: 84.2%
[26]
  Activity: Non-Toxic
HGC-27 [27]
  Activity: 4%
HGC-27 [28]
  Activity: 91.3%
HGC-27 [29]
  viability at 8 µM: 83.1%
AGS [30]
  Activity: 1.7%
HGC-27 [31]
  Activity: Active
HGC-27 [32]
  Activity: 1.5%
AGS [33]
  inhibition: Active
AGS [34]
  viability at 10 µM: 81.2%
